How the values were obtained:
Format in all cases: in vivo, rat
male Sprague-Dawley rats [1] = assay: Rotarod motor coordination; details: 10 mg/kg i.p., 30 minutes before test; vehicle 193.6 ± 14.9
male Sprague-Dawley rats [2] = assay: Complete Freund's Adjuvant; details: 48 hours after CFA injection (24 hours post-treatment)
male Sprague-Dawley rats [3] = assay: Brennan model of incisional pain
male Sprague-Dawley rats [4] = assay: Gastrointestinal transit of a charcoal meal; details: 30 mg/kg; vehicle 0.62 ± 0.02

CN1C(=O)CN=C(c2ccccc2)c2cc(Cl)ccc21 [Diazepam, diazepam]
time spent on the rotarod (male Sprague-Dawley rats [1]): 60.1 ± 23.7 s

O=C(O)Cc1ccccc1Nc1c(Cl)cccc1Cl [Diclofenac, diclofenac]
effect on edema (male Sprague-Dawley rats [2]): decreased edema

CN1CC[C@]23c4c5ccc(O)c4O[C@H]2[C@@H](O)C=C[C@H]3[C@H]1C5 [morphine]
effect of daily administration on anti-hyperalgesic effect (tolerance) (male Sprague-Dawley rats [3]; 5 mg/kg s.c. once a day for 7 consecutive days): blunted its effects on hyperalgesia | duration of anti-hyperalgesic effect (male Sprague-Dawley rats [3]; after single s.c. administration): < 6 h | relative distance traveled (gastrointestinal transit) (male Sprague-Dawley rats [4]): 0.22 ± 0.02

From paper PMC9371589 (Behavioural pharmacology, 2022)
